The text below walks through data of patent publication US9084419B2, “Method for reducing temperature stress of plants” (SUMITOMO CHEMICAL COMPANY, LIMITED, priority 2009, dated 2015).

For assay [1], the system named is wheat (cultivar: Apogee). The experiment in a line: Reduction of high temperature stress by wheat seed treatment (plant weight), Test Example 2. In kind it is in vivo. Conditions: 40° C. (day)/30° C. (night) for 14 days; for Fresh weight of the above-ground part: 32nd day after seeding. The protocol: A Blank slurry solution containing 5% (V/V) color coat red (Becker Underwood, Inc.), 5% (V/V) CF-Clear (Becker Underwood, Inc.) and 0.4% Maxim XL (Syngenta) was prepared. A sodium salt of the compound A was dissolved in the Blank slurry to obtain a slurry solution so as to control the amount of the sodium salt within a range from 0.5 mg to 2 mg per 1 g of seeds. Using a seed treating machine (HEGE11, manufactured by Hans-Ulrich Hege), seed coating was carried out by mixing 1.3 ml of the slurry solution with 50 g of wheat seeds (cultivar: Apogee) and the seeds were dried. As a control, seed coating was carried out using the Blank slurry solution in place of the slurry solution to obtain seeds for non-treated group. The coated seeds (5 seeds each) were sown in the growing soil (AISAI) in a plastic pot and then cultivated for 18 days under the conditions of a temperature of 20 to 25° C., a humidity of 50 to 75%, an illuminance of 5,300 lx, and a day length of 16 hours. Before the stress test, thinning was carried out to control the number of seedlings to 3 per pot. The above test plants on the 18th day after seeding were cultivated for 14 days under the conditions of a temperature of 40° C. (day)/30° C. (night), a humidity of 63% (day)/70% (night), an illuminance of 7,100 lx, and a day length of 16 hours. After the stress test, on the 32nd day after seeding, fresh weight of the above-ground part of test plants was examined for 4 to 7 pots.

Assay [2] relates to Rice (cultivar: NIHOMBARE). The experiment in a line: Reduction of low temperature stress in hydroponics of rice. In kind it is in vivo. The conditions noted are these: hydroponic culture medium; stress exposed group, 2 to 4° C. for 3 to 7 days. The protocol: Rice seeds (cultivar: NIHOMBARE) are immersed in distilled water containing 1,000 ppm of Benlate and then incubated at 30° C. for one day. The seeds are washed with distilled water, incubated in distilled water for one day and then subjected to a forced germination treatment. In the bottom of a 288-well plug tray, cotton wool is spread and then the seeds subjected to the forced germination treatment are sown. A hydroponic culture medium (8-fold diluted Kimura B hydroponic culture solution) is added thereto, followed by cultivation for 3 to 10 days under the conditions of a temperature of 28° C. (day)/23° C. (night), a humidity of 60%, an illuminance of 7,100 lx, and a day length of 12 hours. A DMSO solution having a concentration 1,000 times of each test concentration of any one of the compounds A to G is prepared and then diluted with a hydroponic culture medium. An aqueous solution (250,000 ppm) of a sodium salt of the compound A is diluted with the hydroponic culture medium to prepare a liquid having a test concentration. The above rice seedling is transferred to these hydroponic culture media containing the compound, and then cultivated for 7 to 10 days under the conditions of a temperature of 28° C. (day)/23° C. (night), a humidity of 60%, an illuminance of 7,100 lx, and a day length of 12 hours. Using a hydroponic culture medium containing 0.1% DMSO added therein as a control of any one of the compounds A to G and using a hydroponic culture medium as a control of the sodium salt of the compound A, the above rice seedlings are cultivated to form a non-treated group. The seedlings during the treatment with the present compound are cultivated for 3 to 7 days under the conditions of a temperature of 2 to 4° C., a humidity of 40 to 70%, an illuminance of 3,500 lx, and a day length of 12 hours in the stress exposed group, and under the conditions of a temperature of 25 to 30° C., a humidity of 50 to 75%, an illuminance of 4,500 lx, and a day length of 12 hours in the stress non-exposed group. After the stress test, the plant length and the weight of the above-ground part are examined. Using a pulse modulation chlorophyll fluorometer (MAXI-IMAGING-PAM, WALZ), the chlorophyll fluorescence (Fv/Fm) is measured.

The subject of assay [3] is wheat (cultivar: Apogee). The experiment in a line: Reduction of high temperature stress by wheat foliage spraying treatment (plant weight). In kind it is in vivo. Conditions: foliage spray, 0.5 mg in 50 ml; 45° C., 17 hours; 4 days after stress. Here is the method: Wheat (cultivar: Apogee) seeds were sown in the growing soil (AISAI) in a plastic pot ([…]×58 mm in height) and then cultivated for one week under the conditions of a temperature of 20 to 25° C., a humidity of 50 to 75%, an illuminance of 5,300 lx, and a day length of 16 hours.
A flowable formulation of the compound A was obtained by adding about 120 mg of a mixture of white carbon and a polyoxyethylene alkyl ether sulfate ammonium salt (weight ratio of 1:1) and 300 μl of water to 0.5 mg of the compound A, followed by fine grinding using a wet grinding method. The obtained flowable formulation was diluted with 50 ml of water to obtain a spray liquid. After adding 0.2% RINO as a sticker to the spray liquid, a sufficient amount (45 ml per 6 pots) was sprayed using an automatic spraying machine. As a control, a flowable formulation not containing the compound A was prepared and then sprayed to the non-treated group. Under the conditions of a temperature of 20 to 25° C., a humidity of 50 to 75%, an illuminance of 5,300 lx, and a day length of 16 hours, cultivation was carried out for 2 days.
The above test plants having been subjected to the spraying treatment were put in an artificial climate chamber set to the following conditions, and a stress test was carried out.
Temperature: 45° C., 17 hours, Illuminance: 6,500 to 7,900 lx, and Humidity: 50%. […]

Assay [4] concerns Tomato (cultivar: Micro-Tom). The experiment in a line: Reduction of high temperature stress by tomato soil irrigation treatment (fruit setting rate). In kind it is in vivo. The conditions noted are these: soil irrigation twice, 50 ml per seedling; 40° C. (day)/30° C. (night) for 7 days; 13 days after stress. The protocol: Tomato seeds (cultivar: Micro-Tom) were sown in the growing soil (AISAI) in a plastic pot and then cultivated in a greenhouse (set at a temperature of 25° C.) for about 4 weeks. A soil irrigation treatment was carried out twice, using an aqueous solution of a sodium salt of the compound A in an amount of 50 ml per seedling, on the 15th day and the 22nd day after seeding. As a control, a soil irrigation treatment was carried out using distilled water in an amount of 50 ml per seedling to form a non-treated group. After the irrigation treatment, plants cultivated up to the period when a 1st flower cluster blooms (1 to 2 flowers bloom(s), on the 32nd day after seeding) were cultivated for 7 days under the conditions of a temperature of 40° C. (day)/30° C. (night), a humidity of 63% (day)/70% (night), an illuminance of 7,100 lx, and a day length of 16 hours in the stress exposed group, while plants were cultivated for 7 days in a greenhouse (set at a temperature of 25° C.) in the stress non-exposed group. After the stress test, the test plants were cultivated for 13 days in a greenhouse (set at a temperature of 25° C.), the number of flower setting and the number of fruit setting were counted to determine a fruit setting rate (%) (number of fruit setting/number of flower setting×100).

Assay [5] concerns roots. Conditions: known from JP 4,087,942, JP 2001-139405, Plant and Soil 255: 67-75 (2003); cited from earlier work.
For assay [6], the system named is wheat (cultivar: Apogee). The experiment in a line: Reduction of high temperature stress by wheat seed treatment (plant weight), Test Example 10. In kind it is in vivo. The conditions noted are these: seed coating 5 mg per 1 g of seeds; 36° C. (day)/32° C. (night) for 19 days; 36th day after seeding. The protocol:
A Blank slurry solution containing 5% (V/V) color coat red (Becker Underwood, Inc.), 5% (V/V) CF-Clear (Becker Underwood, Inc.) and 0.4% Maxim XL (Syngenta) was prepared. The compound C (methyl 4-oxo-4-(2-phenylethyl)aminobutyrate) or the compound E (5-oxo-5-[2-(3-indolyl)ethyl]aminovaleric acid) was dissolved in the Blank slurry to obtain a slurry solution so as to control the amount of the compound to be 5 mg per 1 g of seeds. Using a 50-ml conical tube, seed coating was carried out by mixing 1.3 ml of the slurry solution with 50 g of wheat seeds (cultivar: Apogee) and the seeds were dried. As a control, seed coating was carried out using the Blank slurry solution in place of the slurry solution to obtain seeds for non-treated group. The coated seeds (5 seeds each) were sown in the growing soil (AISAI) in a plastic pot and then cultivated in a greenhouse (set at a temperature of 18° C. (day)/15° C. (night)) for 17 days. Before the stress test, thinning was carried out to control the number of seedlings to 3 per pot.
The above test plants on the 17th day after seeding were cultivated for 19 days in an artificial climate chamber under the conditions of a temperature of 36° C. (day)/32° C. (night), a humidity of 50% (day)/60% (night), an illuminance of 7,000 lx, and a day length of 12 hours. […]

In the case of `O=C([O-])CCC(=O)NCCc1ccccc1.[Na+]` [Compound A, Na salt], in assay [1] (seed coating 0.5 mg/g of seeds), the “Percentage relative to non-treated group (fresh weight of the above-ground part)” value (“Percentage relative to non-treated group” for short) amounted to 150% and the Fresh weight of the above-ground part turned out to be 0.87 g/3 seedlings. Besides, in assay [1] (seed coating 1.0 mg/g of seeds), the “Percentage relative to non-treated group” value is listed as 140% and the Fresh weight of the above-ground part came out at 0.77 g/3 seedlings. For the same compound, in assay [1] (seed coating 2.0 mg/g of seeds), the “Percentage relative to non-treated group” value was determined as 140% and the Fresh weight of the above-ground part was 0.81 g/3 seedlings. In assay [2], the “chlorophyll fluorescence (Fv/Fm) vs non-treated group” value was “increase”, the “plant length vs non-treated group” value was “increase” and the “weight of the above-ground part vs non-treated group” value was “increase”.

Take `O=C(O)CCC(=O)NCCc1ccccc1` [compound A, 4-oxo-4-(2-phenylethyl)aminobutyric acid]: in assay [3], the “fresh weight of the above-ground part vs non-treated group” value (“fresh weight … vs non-treated group” for short) is “increased”; the “visual evaluation of high temperature stress-induced withering and dying vs non-treated group” value is “alleviation of high temperature stress-induced withering and dying was observed”. The “fruit setting rate vs non-treated group” value in assay [4] is given as “a decrease in fruit setting rate was remarkably alleviated”. Besides, in assay [5], the “activity to promote growth of roots” value was “have activity to promote growth of roots”.

`COC(=O)CCC(=O)NCCCCc1ccccc1` [compound B, methyl 4-oxo-4-(4-phenylbutyl)aminobutyrate]: in assay [2], the “chlorophyll fluorescence (Fv/Fm) vs non-treated group” value was “increase”, the “plant length vs non-treated group” value is “increase” and the “weight of the above-ground part vs non-treated group” value is “increase”.

Regarding `COC(=O)CCC(=O)NCCc1ccccc1` [compound C, methyl 4-oxo-4-(2-phenylethyl)aminobutyrate], the “fresh weight … vs non-treated group” value in assay [6] is listed as “increased”.

Consider `O=C(O)CCCC(=O)NCCc1c[nH]c2ccccc12` [compound E, 5-oxo-5-[2-(3-indolyl)ethyl]aminovaleric acid], for which the “fresh weight … vs non-treated group” value in assay [6] is “increased”.
